Measurements as given in article PMC9138505, “Small Molecule 20S Proteasome Enhancer Regulates MYC Protein Stability and Exhibits Antitumor Activity in Multiple Myeloma” (Biomedicines, 2022).
Like-named read-outs stand apart in the source and are kept apart here.

Key:
[1] = tested on: human constitutive 20S proteasome; test: Proteasome activity in purified protein assay (fluorogenic AMC peptide substrates); assay type: biochemical
Experimental: The proteolytic activity of the 20S proteasome can be monitored in vitro by measuring the cleavage of fluorogenic peptide substrates for the different catalytic sites as an increase in 7-amino-4-methylcoumarin (AMC) fluorescence over time, as previously reported. Purified human 20S proteasome was pre-treated with a concentration range of TCH-165 or DMSO (vehicle control) for 15 min at 37 °C, on a black flat/clear bottom 96-well plate containing 1 nM of human constitutive 20S proteasome in 50 mM Tris-HCl pH 7.5. Fluorogenic substrates, Suc-LLVY-AMC (CT-L activity, 10 μM), Z-LLE-AMC (Casp-L activity, 10 μM), Boc-LRR-AMC (Tryp-L activity, 20 μM), were then added and the enzymatic activity measured at 37 °C on a SpectraMax M5e spectrometer by measuring an increase in the fluorescence unit per minute for 1 h at 380–460 nm. The release of AMC was monitored as fluorescence over time for 1 h and the resulting 20S activity changes were determined by comparing to the untreated 20S and calculating the fold-increase in activity over vehicle control for each analog at a given concentration.

MYC = MYC degradation in MM cells, Western blot; assay type: cell-based, human; settings: RPMI-8226 cells
Experimental: Western blot: RPMI-8226 cells were grown to approximately 80% confluency in a T-75 flask. Cells were treated with either vehicle (DMSO) or TCH-165 at the indicated concentrations, for 4 h. In experiments involving bortezomib, cells were pre-treated with bortezomib (5 μM) for 1 h before adding TCH-165 or vehicle for a further 4 h. Cells were pelleted and washed with chilled PBS buffer (2X) and resuspended in chilled RIPA buffer supplemented with protease inhibitor cocktail (Sigma Aldrich; Burlington, MA, USA). Total protein was quantified by bicinchoninic acid assay (BCA assay, Thermofisher Scientific; Waltham, MA, USA), normalized to 2 mg/mL and boiled with 5X SDS loading buffer. Lysates (30 μg) were resolved on a 4–20% Tris/glycine gel and transferred to a PVDF membrane. The membrane was probed with anti MYC (Cell Signaling; cat#5605; Danvers, MA, USA) and anti-GAPDH-HRP (Santa Cruz; sc-47724 HRP; Dallas TX, USA) antibodies.

c-MYC [2] = test: c-MYC degradation ELISA in L363 cells; assay type: cell-based, human; settings: various concentrations, 4 h
Experimental: (§1) ELISA: c-MYC degradation in L363 and H929 cells. L363 cells were grown in T-25 flasks in RPMI-1640 medium supplemented with 15% heat-inactivated fetal bovine serum (FBS) and 1% penicillin/streptomycin at 37 °C and 5% CO2. H929 cells were grown in T-25 flasks in RPMI-1640 medium supplemented with 10% FBS, 0.05 mM 2-mercaptoethanol, and 1% penicillin/streptomycin. Cells were treated with DMSO, TCH-165, or bortezomib (BTZ) at the indicated concentrations for 4 h (0.1% final DMSO concentration). Following the 4-hour treatment, cells were pelleted, washed with chilled PBS buffer, and resuspended in chilled lysis buffer (10 mM Tris, 100 mM NaCl, 1 mM EDTA, 1 mM EGTA, 1 mM NaF, 20 mM Na4P2O7, 2 mM Na3VO4, 1% Triton X-100, 10% glycerol, 0.1% SDS, and 0.5% deoxycholate; pH 7.4) supplemented with Complete Mini Protease Inhibitor Cocktail (Sigma Aldrich). The lysate was clarified by centrifugation at 5000 rpm (4 °C) for 15 min. Total protein of the lysate was quantified by bicinchoninic acid assay (BCA assay, Thermofisher Scientific; Waltham, MA, USA). and normalized to 1.5 mg/mL total protein. The supplied protocol for the human c-MYC (Total) ELISA Kit (Invitrogen; Waltham, MA, USA) was used to determine the total c-MYC concentration of the lysates. Prior to loading lysate into ELISA plate wells, lysate (5 µL) was diluted into 45 µL of supplied standard diluent buffer.

c-MYC [3] = test: c-MYC degradation ELISA in H929 cells; assay type: cell-based, human; settings: various concentrations, 4 h
Experimental: as §1

[4] = tested on: RPMI-8226, L363 and H929 cells; test: Assessment of apoptosis, Caspase-Glo 3/7 assay; assay type: cell-based, human; settings: all three MM cell lines, 24 h (Figure S1)
Experimental: Apoptosis was evaluated with the Caspase-Glo 3/7 assay kit (Promega; Madison, WI, USA) according to the manufacturer’s instructions. […] Staurosporine (81590, Cayman), an apoptosis inducer, was used as a positive control at 10 μM concentration for 3 h of incubation. After the incubation, the caspase reagent was added to the cells and incubated at 37 °C for 30 min. The luminescent signal was detected by the EnVision plate reader (PerkinElmer; Waltham, MA, USA) and the data were analyzed by Graph Pad Prism (9.2.0, Graph Pad Software Inc., San Diego, CA, USA).

RPMI-8226 cells = test: Cell viability, CellTiter-Glo, 72 h; assay type: cell-based, human; settings: RPMI-8226, 72 h
Experimental: (§2) RPMI-8226, L363 and NCI-H929 cells were obtained from ATCC (Manassas, VA, USA) and were maintained in RPMI medium supplemented with 10% fetal bovine serum, and 100 U/mL penicillin/streptomycin, at 37 °C with 5% CO2. DMSO was used as the compound vehicle or vehicle control at a 0.1% final concentration for both cell culture and enzyme assay.
(§3) Error bars represent SD for triplicate wells.

L363 cells = test: Cell viability, CellTiter-Glo, 72 h; assay type: cell-based; settings: Homo sapiens, L-363; L363, 72 h
Experimental: as §2, §3

NCI-H929 cells = test: Cell viability, CellTiter-Glo, 72 h; assay type: cell-based; settings: Homo sapiens; NCI-H929, 72 h; CI by 3-parameter curve
Experimental: as §2, §3

[5] = Pharmacokinetic assessment in CD-1 mice; assay type: in vivo; settings: for Cmax / Tmax: po, 100 mg/kg
Experimental: The PK study was carried out with CD-1 mice (males, 6–8 weeks of age, n = 3 per treatment group) weighing between 24.9 g to 33.7 g immediately prior to dosing. TCH-165 (100 mg/kg) was administered by oral gavage, as a homogeneous suspension in a 3:7 (v/v) propylene glycol: 5% dextrose as a vehicle. A second dose of 100 mg/kg TCH-165 was administered approximately 8 h post-initial gavage. Blood was collected at 0.5 h, 1 h, 2 h, 4 h, 8 h, 9 h, 10 h, 12 h, and 16 h post-initial gavage in lithium heparin tubes. Plasma was separated by centrifugation and analyzed using mass spectrometry.

26S proteasome = tested on: 26S proteasome; parameters: method as in PMID 29897236; settings: cited from earlier work
[6] = tested on: primary cells from a BTZ refractory MM patient; test: Primary cell viability, CellTiter-Glo, 72 h; settings: Homo sapiens
Source text: White blood cells (WBCs) were separated from red blood cells by the Ficoll density gradient. Multiple myeloma cells were then isolated from WBCs using human CD138 affinity magnetic beads (Miltenyi Biotec; cat#130-093-062; Gaithersburg, MD, USA) following the manufacturer’s protocol. Cells were cryopreserved in 10% DMSO in FBS. Revived cells were maintained in an RPMI medium with 10% FBS for 10 days prior to treatment. […] Cells were equilibrated to RT and CellTiter-Glo (Promega; Madison, WI, USA) solution (100 μL) was added and incubated with shaking for 10 min at RT. The assay plate was then allowed to equilibrate for 5 min at RT and luminescent readings were taken on a SpectraMax® M5. Data are presented as a percentage of the vehicle control for each experimental condition, after background subtraction. Error bars represent SD for triplicate wells.

EC200 (concentration at which TCH-165 doubles 20S activity) ([1]; CT-L site (b-5), substrate Suc-LLVY-AMC): 1.5 µM
Fold^M (maximum fold enhancement of 20S activity) ([1]; CT-L site, Suc-LLVY-AMC): 810%
Fold^M (maximum fold enhancement of 20S activity) ([1]; Casp-L site, Z-LLE-AMC): 1290%
Fold^M (maximum fold enhancement of 20S activity) ([1]; Tryp-L site, Boc-LRR-AMC): 500%
Cmax ([5]; male, CD-1, mouse, plasma, CD-1 mice, 100 mg/kg oral bid, second dose 8 h after the first, read-out: Cmax following the second dose): 1430 ± 625 nM
Tmax ([5]; male, CD-1, mouse, plasma, CD-1 mice, 100 mg/kg oral bid, second dose 8 h after the first, read-out: Tmax following the second dose): 12 h
Cmax ([5]; male, CD-1, mouse, plasma, CD-1 mice, 100 mg/kg oral gavage, plasma, read-out: Cmax following the first dose): 932 ± 184 nM
Tmax ([5]; male, CD-1, mouse, plasma, CD-1 mice, 100 mg/kg oral gavage, read-out: Tmax following the first dose): 2 h
AUC ([5]; male, CD-1, mouse, plasma, mice, means, 100 mg/kg bid oral, read-out: AUC (nM) (0-16 for mice)): 14 µM·h
AUC(0-t) ([5]; male, mouse, plasma, CD-1 mice, 100 mg/kg oral bid, trapezoidal method, read-out: mean AUC (0–16 h)): 14 µM·h
metabolic lability of the ester moiety (by LC-MS) ([5]; mouse PK study): not metabolically labile
SMILES: CCOC(=O)[C@]1(c2ccccc2)N=C(c2ccc(OC)cc2)N(Cc2ccccc2)[C@@H]1c1ccc(NCc2ccccc2)cc1 [TCH-165]
efficacy of TCH-165 on MYC protein levels with proteasome blocked (MYC; TCH-165 5 μM with BTZ 5 μM): nearly completely abrogated
MYC protein levels compared to vehicle control (MYC; TCH-165 5 μM, 4 h): reduced MYC protein levels
MYC clearance (percent MYC remaining) (c-MYC [2]): induced clearance of MYC
MYC clearance (percent MYC remaining) (c-MYC [3]): induced clearance of MYC
induction of apoptosis (caspase 3/7 activity) [4]: induction of apoptosis
CC50 (RPMI-8226 cells; Homo sapiens): ~1 µM
CC50 (RPMI-8226 cells): 0.9 µM
CC50 (L363 cells): 5 µM
CC50 (NCI-H929 cells): 4.3 µM
26S proteasome activity (26S proteasome): not affected
concentrations at which structured proteins targeted by the 26S-ubiquitin-dependent proteasome system were not affected (26S proteasome): < 30 µM
concentration at which disassembly of the 26S proteasome inhibited 26S-mediated degradation of ubiquitinylated substrates (26S proteasome; various cell lines, including RPMI-8226): > 30 µM
CC50 [6]: 8.1 µM
